# ± gives the expanded uncertainty stated by the source.
# Columns and labels:
# [1] = excess molar enthalpy (molar enthalpy of mixing); xn = mol fraction of the nth substance listed; details: 308.15 K, 101.33 kPa, Liquid, Flow calorimetry
# [2] = 308.15 K; 101.33 kPa; Liquid; Vibrating tube method
compound,measurement,setting,value
OCCOCCOCCO [triethylene glycol] + CCO,excess molar enthalpy,[1]; x1 = 0.0313,0.0319 ± 0.00055 kcal/mol
same,excess molar enthalpy,[1]; x1 = 0.0606,0.0563 ± 0.000813 kcal/mol
same,excess molar enthalpy,[1]; x1 = 0.0883,0.077 ± 0.001 kcal/mol
same,excess molar enthalpy,[1]; x1 = 0.1143,0.0905 ± 0.00115 kcal/mol
same,excess molar enthalpy,[1]; x1 = 0.1623,0.111 ± 0.00136 kcal/mol
same,excess molar enthalpy,[1]; x1 = 0.2047,0.125 ± 0.00148 kcal/mol
same,excess molar enthalpy,[1]; x1 = 0.2792,0.141 ± 0.00165 kcal/mol
same,excess molar enthalpy,[1]; x1 = 0.3405,0.145 ± 0.0017 kcal/mol
same,excess molar enthalpy,[1]; x1 = 0.4365,0.15 ± 0.00174 kcal/mol
same,excess molar enthalpy,[1]; x1 = 0.5376,0.146 ± 0.0017 kcal/mol
same,excess molar enthalpy,[1]; x1 = 0.6078,0.145 ± 0.0017 kcal/mol
same,excess molar enthalpy,[1]; x1 = 0.6992,0.132 ± 0.00155 kcal/mol
same,excess molar enthalpy,[1]; x1 = 0.756,0.117 ± 0.00141 kcal/mol
same,excess molar enthalpy,[1]; x1 = 0.823,0.0973 ± 0.00122 kcal/mol
same,excess molar enthalpy,[1]; x1 = 0.8613,0.0786 ± 0.00103 kcal/mol
same,excess molar enthalpy,[1]; x1 = 0.9029,0.0595 ± 0.000837 kcal/mol
same,excess molar enthalpy,[1]; x1 = 0.949,0.0324 ± 0.000574 kcal/mol
CCO [ethanol],mass density,[2],776.41 ± 0.17 kg/m3
OCCOCCO [diethylene glycol],mass density,[2],1105.65 ± 0.57 kg/m3
"OCCO [1,2-ethanediol] + CCO",excess molar enthalpy,[1]; x1 = 0.0719,0.0526 ± 0.000765 kcal/mol
same,excess molar enthalpy,[1]; x1 = 0.1341,0.0833 ± 0.00108 kcal/mol
same,excess molar enthalpy,[1]; x1 = 0.1886,0.103 ± 0.00127 kcal/mol
same,excess molar enthalpy,[1]; x1 = 0.2365,0.115 ± 0.00139 kcal/mol
same,excess molar enthalpy,[1]; x1 = 0.3173,0.126 ± 0.00151 kcal/mol
same,excess molar enthalpy,[1]; x1 = 0.3826,0.131 ± 0.00155 kcal/mol
same,excess molar enthalpy,[1]; x1 = 0.4817,0.131 ± 0.00155 kcal/mol
same,excess molar enthalpy,[1]; x1 = 0.5533,0.125 ± 0.00148 kcal/mol
same,excess molar enthalpy,[1]; x1 = 0.6502,0.115 ± 0.00139 kcal/mol
same,excess molar enthalpy,[1]; x1 = 0.7361,0.099 ± 0.00122 kcal/mol
same,excess molar enthalpy,[1]; x1 = 0.788,0.0846 ± 0.00108 kcal/mol
same,excess molar enthalpy,[1]; x1 = 0.8479,0.0684 ± 0.000932 kcal/mol
same,excess molar enthalpy,[1]; x1 = 0.8815,0.0565 ± 0.000813 kcal/mol
same,excess molar enthalpy,[1]; x1 = 0.9177,0.0413 ± 0.000645 kcal/mol
same,excess molar enthalpy,[1]; x1 = 0.9371,0.0333 ± 0.000574 kcal/mol
same,excess molar enthalpy,[1]; x1 = 0.9571,0.0229 ± 0.000478 kcal/mol
same,excess molar enthalpy,[1]; x1 = 0.9781,0.012 ± 0.000359 kcal/mol
OCCOCCO [diethylene glycol] + CCO,excess molar enthalpy,[1]; x1 = 0.0434,0.0185 ± 0.00043 kcal/mol
same,excess molar enthalpy,[1]; x1 = 0.0833,0.0319 ± 0.00055 kcal/mol
same,excess molar enthalpy,[1]; x1 = 0.1199,0.0422 ± 0.000669 kcal/mol
same,excess molar enthalpy,[1]; x1 = 0.1537,0.0483 ± 0.000717 kcal/mol
same,excess molar enthalpy,[1]; x1 = 0.2142,0.0582 ± 0.000813 kcal/mol
same,excess molar enthalpy,[1]; x1 = 0.2663,0.063 ± 0.00086 kcal/mol
same,excess molar enthalpy,[1]; x1 = 0.3528,0.0668 ± 0.000908 kcal/mol
same,excess molar enthalpy,[1]; x1 = 0.4208,0.0668 ± 0.000908 kcal/mol
same,excess molar enthalpy,[1]; x1 = 0.5216,0.0644 ± 0.000884 kcal/mol
same,excess molar enthalpy,[1]; x1 = 0.6206,0.0565 ± 0.000813 kcal/mol
same,excess molar enthalpy,[1]; x1 = 0.6856,0.0507 ± 0.000741 kcal/mol
same,excess molar enthalpy,[1]; x1 = 0.7658,0.0417 ± 0.000645 kcal/mol
same,excess molar enthalpy,[1]; x1 = 0.8135,0.0353 ± 0.000598 kcal/mol
same,excess molar enthalpy,[1]; x1 = 0.8674,0.0262 ± 0.000502 kcal/mol
same,excess molar enthalpy,[1]; x1 = 0.8973,0.0217 ± 0.000454 kcal/mol
same,excess molar enthalpy,[1]; x1 = 0.929,0.0152 ± 0.000382 kcal/mol
same,excess molar enthalpy,[1]; x1 = 0.9632,0.00786 ± 0.000311 kcal/mol
OCCOCCOCCO [triethylene glycol],mass density,[2],1112.09 ± 0.57 kg/m3

# Reference: the NIST ThermoML archive (doi:10.1016/j.tca.2005.01.064)
